#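 Values below derive from 48-hour exposures of cells grown in 96-well plates, with endpoints linearly interpolated between the two concentrations bracketing the appropriate inhibition level. GI50 is the concentration that inhibits growth by half.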 Activity calls are given as the source filed them. Cut-off read from the data, not from the text of the source: active = GI50 up to about 1.1 µM and inactive = higher.
# How the values were obtained:
# Experiment in all cases: inhibition of tumour cell growth, NCI panel, 48 h
# [1] = system: MOLT-4
# [2] = system: NCI-H460
# [3] = system: OVCAR-5
# [4] = system: IGROV-1
# [5] = system: OVCAR-3
# [6] = system: HOP-18
# [7] = system: NCI-H522
# [8] = system: ACHN
# [9] = system: SK-MEL-28
# [10] = system: CAKI-1
# [11] = system: U-251
# [12] = system: K562
# [13] = system: Malme-3M
# [14] = system: OVCAR-8
# [15] = system: TK-10
# [16] = system: HCT-116
# [17] = system: T47D
# [18] = system: RXF 393
# [19] = system: BT-549
# [20] = system: MDA-N
Structure (SMILES),GI50 [1],GI50 [2],GI50 [3],GI50 [4],GI50 [5],GI50 [6],GI50 [7],GI50 [8],GI50 [9],GI50 [10],GI50 [11],GI50 [12],GI50 [13],GI50 [14],GI50 [15],GI50 [16],GI50 [17],GI50 [18],GI50 [19],GI50 [20]
Cc1ccc(-c2c(N)[n+]([O-])c3ccccc3[n+]2[O-])cc1,45.2 µM (inactive),18.7 µM (inactive),17.9 µM (inactive),14.9 µM (inactive),16 µM (inactive),15.7 µM (inactive),1.55 µM (inactive),15.4 µM (inactive),6.52 µM (inactive),3.81 µM (inactive),14.3 µM (inactive),15 µM (inactive),3.47 µM (inactive),23.4 µM (inactive),18.4 µM (inactive),–,–,–,–,–
CN(C(=N)c1ccccc1)c1ccccc1,> 100 µM (inactive),–,–,> 100 µM (inactive),> 100 µM (inactive),> 100 µM (inactive),–,–,> 100 µM (inactive),–,> 100 µM (inactive),> 100 µM (inactive),–,> 100 µM (inactive),> 100 µM (inactive),> 100 µM (inactive),–,–,–,–
CC1/C=C/C=C/CC/C=C/C=C/C=C/C=C/C(OC2OC(C)C(O)C(N)C2O)CC2OC(CC(O)C(O)CCC(O)CC(O)CC(O)CC(=O)OC(C)C(C)C1O)CC(O)C2C(=O)O (centres undefined),20.2 µM (inactive),17.5 µM (inactive),17.9 µM (inactive),17.6 µM (inactive),20 µM (inactive),–,19.3 µM (inactive),17.7 µM (inactive),19.7 µM (inactive),17.5 µM (inactive),17.4 µM (inactive),34.4 µM (inactive),17.9 µM (inactive),21.6 µM (inactive),17.5 µM (inactive),17.2 µM (inactive),57.1 µM (inactive),13.8 µM (inactive),17 µM (inactive),17.3 µM (inactive)
CC12OC(=O)[C@@]3(O)CCC4C(C[C@H]5O[C@]56CC=CC(=O)[C@]46C)C45OC[C@H]6C(=O)O[C@@H]1C[C@@]6(C)[C@H](C4=O)C23O5 (some centres undefined),0.673 µM (active),1.94 µM (inactive),3.34 µM (inactive),1.24 µM (inactive),0.676 µM (active),–,0.269 µM (active),1.84 µM (inactive),0.394 µM (active),2.64 µM (inactive),1.99 µM (inactive),0.53 µM (active),1.36 µM (inactive),0.955 µM (active),1 µM (active),1.33 µM (inactive),1.36 µM (inactive),0.39 µM (active),0.818 µM (active),3.4 µM (inactive)
COc1ccccc1C1(c2c(OC)c(=O)c2=O)SCCCS1,72.4 µM (inactive),> 100 µM (inactive),34.4 µM (inactive),47.2 µM (inactive),86.7 µM (inactive),–,27.4 µM (inactive),> 100 µM (inactive),> 100 µM (inactive),> 100 µM (inactive),> 100 µM (inactive),> 100 µM (inactive),62.5 µM (inactive),67.1 µM (inactive),> 100 µM (inactive),> 100 µM (inactive),73.8 µM (inactive),44.5 µM (inactive),31.6 µM (inactive),> 100 µM (inactive)
O=C(/C=C/c1ccccc1)CSc1nc2ccc(I)cc2c(=O)n1Cc1ccccc1,9.82 µM (inactive),15.6 µM (inactive),> 100 µM (inactive),7.26 µM (inactive),12.4 µM (inactive),–,12.3 µM (inactive),7.64 µM (inactive),99.5 µM (inactive),1.71 µM (inactive),26.5 µM (inactive),13.9 µM (inactive),23.6 µM (inactive),25.5 µM (inactive),28.8 µM (inactive),19.8 µM (inactive),9.16 µM (inactive),17 µM (inactive),> 77.4 µM (inactive),30.8 µM (inactive)
COc1ccc2c(c1)[n+]([O-])c(-c1ccccc1)c(N)[n+]2[O-],71.3 µM (inactive),35.6 µM (inactive),94 µM (inactive),43.4 µM (inactive),39.8 µM (inactive),33.6 µM (inactive),17.1 µM (inactive),52.6 µM (inactive),25 µM (inactive),37.2 µM (inactive),31.3 µM (inactive),45.2 µM (inactive),20.9 µM (inactive),37.2 µM (inactive),> 100 µM (inactive),–,–,–,–,–
N=C(N)N/N=C/c1c(Cl)nc2sccn12,16.4 µM (inactive),16.7 µM (inactive),28.8 µM (inactive),53.5 µM (inactive),24.1 µM (inactive),–,27 µM (inactive),16.8 µM (inactive),35.4 µM (inactive),52.6 µM (inactive),29.9 µM (inactive),25.6 µM (inactive),23.3 µM (inactive),50.4 µM (inactive),52.2 µM (inactive),15.3 µM (inactive),26.5 µM (inactive),28.2 µM (inactive),26.9 µM (inactive),30.1 µM (inactive)
COc1ccc(C(O)/C(=N/N)c2nc3ccc(Cl)cc3nc2O)cc1 (centres undefined),> 100 µM (inactive),> 100 µM (inactive),> 100 µM (inactive),> 100 µM (inactive),> 100 µM (inactive),–,> 100 µM (inactive),> 100 µM (inactive),> 100 µM (inactive),> 100 µM (inactive),> 100 µM (inactive),> 100 µM (inactive),> 100 µM (inactive),> 100 µM (inactive),> 100 µM (inactive),> 100 µM (inactive),99.8 µM (inactive),> 100 µM (inactive),> 100 µM (inactive),> 100 µM (inactive)
FC(F)(Sc1ccccc1)c1nc2ccccc2o1,13.8 µM (inactive),55.5 µM (inactive),59.7 µM (inactive),> 100 µM (inactive),34.4 µM (inactive),–,34.6 µM (inactive),47.4 µM (inactive),> 100 µM (inactive),> 100 µM (inactive),21.9 µM (inactive),27 µM (inactive),51.1 µM (inactive),83.4 µM (inactive),75.2 µM (inactive),28.6 µM (inactive),> 100 µM (inactive),28.5 µM (inactive),55.5 µM (inactive),82.6 µM (inactive)
CC1OC(n2cc(I)c(=O)[nH]c2=O)C=CC1=O (centres undefined),14.1 µM (inactive),18.8 µM (inactive),25 µM (inactive),20.4 µM (inactive),17.5 µM (inactive),16.7 µM (inactive),–,17.7 µM (inactive),15.7 µM (inactive),16 µM (inactive),14.4 µM (inactive),3.92 µM (inactive),14.9 µM (inactive),17.1 µM (inactive),18.6 µM (inactive),11.8 µM (inactive),–,–,–,–
Cc1ccc([N+](=O)[O-])cc1S(=O)(=O)Nc1ccc(C2=NN(S(=O)(=O)c3cc([N+](=O)[O-])ccc3C)C(c3cccs3)C2)cc1 (centres undefined),22.4 µM (inactive),28.2 µM (inactive),74 µM (inactive),46.3 µM (inactive),19.6 µM (inactive),–,26.1 µM (inactive),32.4 µM (inactive),65.8 µM (inactive),44.1 µM (inactive),30.1 µM (inactive),24.2 µM (inactive),47.9 µM (inactive),50.2 µM (inactive),38.6 µM (inactive),26.5 µM (inactive),21.5 µM (inactive),56.5 µM (inactive),38.6 µM (inactive),33.7 µM (inactive)
COC12COC(=O)C1C(c1ccc3c(c1)OCO3)c1cc3c(cc1O2)OCO3 (centres undefined),7.11 µM (inactive),10.5 µM (inactive),> 73.1 µM (inactive),20.8 µM (inactive),9.62 µM (inactive),–,6.14 µM (inactive),29.1 µM (inactive),32.8 µM (inactive),> 73.8 µM (inactive),32 µM (inactive),4.21 µM (inactive),40.7 µM (inactive),26.1 µM (inactive),29.2 µM (inactive),11.1 µM (inactive),24.2 µM (inactive),10.3 µM (inactive),15.6 µM (inactive),2.69 µM (inactive)
Cn1c(-c2ccc[se]2)ccc1-c1ccc(CO)[se]1,21.1 µM (inactive),0.0206 µM (active),< 0.0209 µM (active),< 0.01 µM (active),0.0348 µM (active),–,27.9 µM (inactive),23.2 µM (inactive),52.8 µM (inactive),< 0.01 µM (active),< 0.0129 µM (active),0.159 µM (active),10.2 µM (inactive),33.1 µM (inactive),0.0129 µM (active),0.826 µM (active),0.0405 µM (active),0.239 µM (active),27.7 µM (inactive),18 µM (inactive)
COC(=O)C1=CC2C(=O)OC1C1C(=O)NC(=O)C21 (centres undefined),> 100 µM (inactive),> 100 µM (inactive),–,> 100 µM (inactive),> 100 µM (inactive),> 100 µM (inactive),> 100 µM (inactive),> 100 µM (inactive),> 100 µM (inactive),> 100 µM (inactive),> 100 µM (inactive),> 100 µM (inactive),> 100 µM (inactive),> 100 µM (inactive),> 100 µM (inactive),> 100 µM (inactive),–,–,–,–
COc1ccc(N[C@H]([C@@H](c2ccccc2)[S+]([O-])c2ccc(C)cc2)C(F)(F)F)cc1 (some centres undefined),34.9 µM (inactive),50.1 µM (inactive),40.6 µM (inactive),48.8 µM (inactive),> 100 µM (inactive),–,56.5 µM (inactive),35 µM (inactive),> 100 µM (inactive),46.7 µM (inactive),17.9 µM (inactive),28.4 µM (inactive),75.2 µM (inactive),80.9 µM (inactive),74.1 µM (inactive),29.4 µM (inactive),> 100 µM (inactive),53.5 µM (inactive),38.6 µM (inactive),74.8 µM (inactive)

# From ChEMBL document CHEMBL1201862, “PubChem BioAssay data set” (2004)
